Measurements as given in US20070004735A1, “Method for inhibiting the replication of herpes viruses” (priority 2003, published 2007).

Experiments:
[1] = tested on: HCMV AD169 clone with mutation in UL86 A1226T; assay: Susceptibility (IC50) of resistant HCMV AD169 clone A1226T; format: cell-based, Human cytomegalovirus; conditions: Human betaherpesvirus 5, read-out: IC 50, A1226T
Description: (§1) The test compounds are employed as 50 millimolar (mM) solutions in dimethyl sulfoxide (DMSO). Ganciclovir®, Foscarnet® and Cidofovir® are used as reference compounds. After addition of in each case 2 μl of the 50, 5, 0.5 and 0.05 mM DMSO stock solutions to 98 μl portions of cell culture medium in row 2 A-H for duplicate determinations, 1:2 dilutions are carried out with 50 μl portions of medium up to row 11 of the 96-well plate. The wells in rows 1 and 12 each contain 50 μl of medium. 150 μl of a suspension of 1×10^4 cells (human prepuce fibroblasts [NHDF]) are then pipetted into each of the wells (row 1=cell control) and, in rows 2-12, a mixture of HCMV-infected and uninfected NHDF cells (M.O.I.=0.001-0.002), i.e. 1-2 infected cells per 1000 uninfected cells. Row 12 (without substance) serves as virus control. The final test concentrations are 250-0.0005 μM. The plates are incubated at 37° C./5% CO2 for 6 days, i.e. until all the cells are infected in the virus controls (100% cytopathogenic effect [CPE]). The wells are then fixed and stained by adding a mixture of formalin and Giemsa's dye (30 minutes), washed with double-distilled water and dried in a drying oven at 50° C. The plates are then assessed visually using an overhead microscope (plaque multiplier from Technomara).
(§2) For this purpose, NHDF cells are seeded in tissue culture vessels. 5×10^3 cells per well are seeded in 96-well plates and infected with cell-free HCMV AD169 with an moi of 0.03. The infections are cultivated under substance pressure which corresponds to 10 times the IC50 of the substance. Preferably, 30-100 96-well plates inoculated as described are made up. […] Finally, viral stocks are produced as described above and frozen. Serial ten-fold dilution of the virus-infected cells or of the cell culture supernatant of the virus-infected cells is followed by determination of the titer on 24-well plates of confluent NHDF cells after vital staining with neutral red. Finally, the susceptibility to various substances (IC50 determination) is determined as described above.
(§3) The HCMVAD169 mutants selected as described above are grown in vitro on human embryonic prepuce fibroblasts (NHDF cells) under substance pressure (10×IC50 HCMVAD169). After infection of the NHDF cells with a multiplicity of infection (M.O.I) of 0.01, the virus-infected cells are harvested 5-10 days later, and the total DNA is isolated from these cells with the aid of established standard methods (e.g. phenol extraction and ethanol precipitation). Qiagen Sequencing Services (Qiagen, Hilden) determined, after amplification of the viral UL86 gene by PCR, the DNA sequence, which was then transcribed into protein sequence. Compared with the initial strain HCMV AD169, the differences shown in table 2 were detectable in the protein sequence of the major capsid protein (UL86) in the resistant viruses. The IC50 values [μM] of various substances on these mutants compared with the initial strain are likewise indicated. (n.d.=not measured). […] Depending on the nature of the substance, certain mutations lead to various extents of resistance.

[2] = tested on: HCMV AD169 clone with mutation in UL86 P586T; assay: Susceptibility (IC50) of resistant HCMV AD169 clone P586T; format: cell-based, Human cytomegalovirus; conditions: Human betaherpesvirus 5, read-out: IC 50, P586T
Description: as §1, §2, §3

[3] = tested on: HCMV AD169 clone with mutation in UL86 R435C; assay: Susceptibility (IC50) of resistant HCMV AD169 clone R435C; format: cell-based, Human cytomegalovirus; conditions: Human betaherpesvirus 5, read-out: IC 50, R435C
Description: as §1, §2, §3

[4] = tested on: Human cytomegalovirus (HCMV); assay: Anti-HCMV cytopathogenicity test; format: cell-based; conditions: for IC50: Human betaherpesvirus 5, 144 h, NHDF cells, 6 days, cytopathogenic effect, read-out: IC50, antiviral activity in vitro; for SI (selectivity index): antiviral activity in vitro
Description: Human cytomegalovirus (HCMV), DavisSmith (ATCC VR807) or AD169 (ATCC VR538) strain, is grown in vitro on human embryonic prepuce fibroblasts (NHDF cells). After the NHDF cells have been infected with a multiplicity of infection (M.O.I.) of 0.01, the virus-infected cells are harvested 5-10 days later and stored in the presence of minimal essential medium (MEM), 10% fetal calf serum (FCS) with 10% DMSO at −80° C. A cell-free stock is produced by removing only the cell culture supernatant and immediately freezing at −80° C. After serial ten-fold dilutions of the virus-infected cells or of the cell culture supernatant of the virus-infected cells (cell-free virus), the titer is determined on 24-well plates of confluent NHDF cells after vital staining with neutral red.
as §1

[5] = tested on: HCMV AD169 clone with mutation in UL86 E1320Q; assay: Susceptibility (IC50) of resistant HCMV AD169 clone E1320Q; format: cell-based, Human cytomegalovirus; conditions: Human betaherpesvirus 5, read-out: IC 50, E1320Q
Description: as §1, §2, §3

[6] = tested on: HCMV AD169 clone with mutation in UL86 K1338N; assay: Susceptibility (IC50) of resistant HCMV AD169 clone K1338N; format: cell-based, Human cytomegalovirus; conditions: Human betaherpesvirus 5, read-out: IC 50, K1338N
Description: as §1, §2, §3

[7] = tested on: HCMV AD169 clone with mutation in UL86 R682H; assay: Susceptibility (IC50) of resistant HCMV AD169 clone R682H; format: cell-based, Human cytomegalovirus; conditions: Human betaherpesvirus 5, read-out: IC 50, R682H
Description: as §1, §2, §3

[8] = tested on: HCMV AD169 clone with mutation in UL86 V601M; assay: Susceptibility (IC50) of resistant HCMV AD169 clone V601M; format: cell-based, Human cytomegalovirus; conditions: Human betaherpesvirus 5, read-out: IC 50, V601M
Description: as §1, §2, §3

Compound	IC50 [1]	IC50 [2]	IC50 [3]	IC50 [4]	SI (selectivity index) [4]	IC50 [5]	IC50 [6]	IC50 [7]	IC50 [8]	melting point
CCCCC(=O)Nc1ccc(NC(=O)Nc2ccc(F)c(Cl)c2)cc1 [Example 4, N-[4-({[(3-Chloro-4-fluorophenyl)amino]carbonyl}amino)phenyl]pentanamide]	800 nM	500 nM	> 60000 nM	80 nM	750	2000 nM	> 60000 nM	500 nM	500 nM	
CC1(C)CC(=O)NN=C1c1cc(NC(=O)Nc2cc(F)ccc2F)ccc1O [Example 2, N-(2,5-Difluorophenyl)-N′-[3-(4,4-dimethyl-6-oxo-1,4,5,6-tetrahydro-3-pyridazinyl)-4-hydroxyphenyl]urea]	> 125000 nM	2000 nM	500 nM	400 nM	325	13000 nM	> 125000 nM	3000 nM	3000 nM	
CC1(C)CC(=O)NN=C1c1cccc(NC(=O)Nc2ccc(F)cc2F)c1 [Example 1, N-(2,4-Difluorophenyl)-N′-[3-(4,4-dimethyl-6-oxo-1,4,5,6-tetrahydro-3-pyridazinyl)phenyl]urea]	> 125000 nM	4000 nM	1500 nM	1000 nM	125	> 125000 nM	> 125000 nM	20000 nM	20000 nM	213 °C
